In brackets after ≈: the same amount, converted by molar mass. Read-outs that look alike come from different tables or passages of the source.
Legend:
[1] = system: MDR1 (P-glycoprotein); experiment: MDCK-MDR1 permeability A→B; type: in vitro ADME, Canine; conditions: dog; MDCK cells expressing human MDR1, A→B; read-out: MDCK-MDR Permeability A→B
In short: (§1)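 Permeability measured apical-to-basolateral in MDCK cells expressing human MDR1, reported as binned ranges in cm/s×10^−6. Metabolic stability determined as half-life in mouse and human hepatocytes, reported as binned ranges in minutes.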

[2] = Metabolic stability in mouse hepatocytes; type: in vitro ADME; conditions: read-out: Mouse MS Stability t1/2
Method: (§2) ADME studies: Compound A and the compounds of the disclosure were tested for aqueous solubility (KSOL), metabolic stability (human and mouse […]) and permeability (Caco-2 and/or MDR1-MDCK cells) to provide an initial indication of oral bioavailability.
(§3) The favorable physicochemical properties are reflected in promising results in in vitro ADME tests. […] Metabolic stability, which was routinely measured with mouse and human hepatocytes, is outstanding, with t, greater than 2 hours for all of the compounds of the disclosure in which it has been measured. Cell permeability was measured using MDCK cells expressing human MDR1 (P-glycoprotein) to assess passive permeability as well as active transport out of the cell. […] Numerous compounds in Table 1 meet these permeability criteria, which is consistent with their design for TPSA <140 Å^2 and increased lipophilicity.
(§4) The MDCK-MDR1 permeability A ->B is shown in Table 2 below, where A represents 5-10 cm/s×10^−6; B represents 1-5 cm/s×10^−6; and C represents <1 cm/ss×10^−6. The metabolic stability half time, in both mouse and human hepatocytes, is also shown in Table 2 below, where A′ represents 100-200 minutes; B′ represents 200-300 minutes; and C′ represents >300 minutes.

[3] = Kinetic aqueous solubility (KSOL) in PBS, pH 7.4; type: physicochemical; conditions: aqueous buffer, kinetic from dmso stock
Method: as §2, §3

[4] = biological target: T1, cGAS (Homo sapiens, UniProt Q8N884); experiment: Transcreener cGAS enzymatic assay (FP); type: biochemical
In short: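 Human cGAS (30 nm) inhibition, 60 min reactions, FP read-out, standard conditions 100 μM ATP and GTP plus 62.5 nM bp ISD. Also run at 1 mM ATP and GTP (physiological), with 200 μM MnCl2, and with mouse cGAS under standard conditions; IC50 reported.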

[5] = biological target: mouse cGAS (Mus musculus, UniProt Q8C6L5); experiment: Transcreener cGAS enzymatic assay with mouse cGAS; type: biochemical; conditions: standard conditions, read-out: IC50 with mcGAS
Method: Structural, biochemical and biophysical analysis and selectivity profiling: Potency and MOA studies, including Mn^2+ sensitivity, were performed using the Transcreener cGAS enzymatic assay, which is manufactured at BellBrook Labs (Fitchburg, Wisconsin, USA). This homogenous cGAS enzymatic assay was developed with fluorescence polarization (FP) and time-resolved Forster resonance energy transfer (TR-FRET) readouts, as described in International Patent Publication WO 2020/142729, incorporated by reference herein in its entirety. Plates are read on a PHERAstar FSX multimode reader (BMG). The compounds of the disclosure were tested for inhibition of cGAS ([…]) using this cGAS enzymatic assay under standard conditions (100 μM ATP and GTP, 62.5 nM bp ISD, 60 minute reactions), high ATP and GTP (1 mM) to mimic physiological conditions, in the presence of 200 μM MnCl2, and with mouse cGAS under standard conditions.
Potency with mcGAS is important for vivo efficacy studies and represents a challenge for lead development because mcGAS shares only 57% amino acid identity with human enzyme and there are significant functional differences.

[6] = system: IFNβ production in THP-1 cells; experiment: IFNβ ELISA in THP-1 cells; type: cell-based, human; conditions: for IC50: Homo sapiens, THP-1 cells
In short: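 THP-1 cells stimulated with dsDNA or cGAMP (STING activation bypassing cGAS) in the presence of compound; IFNβ secreted into medium quantified by ELISA. IC50 values reported in potency bins.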

[7] = biological target: T1, cGAS; experiment: Cellular thermal shift assay (CETSA) in THP-1 cells; type: cell-based; conditions: heat treatment 51.5 °C
Method: Panel A is an image of a western blot of the stabilization measure; panel B is a bar graph of the stabilization measure. Heat treatment was conducted at 51.5 ° C.
(§5) CETSA was also used to confirm that the compounds are binding to cGAS in cells; THP-1 cells are used for this analysis. Compounds were tested in dose response mode by incubating with cells for 1.5 hours at 37° C., followed by pelleting and re-suspending in PBS, heating to 51.5° C. for 3 min and cooling to room temp. Cells were then lysed, debris, including denatured cGAS, was pelleted and the supernatant was analyzed for soluble cGAS by Western Blot using anti-cGAS primary Ab (Cell Signaling). Band intensity was analyzed using Image J software. Stimulation with cGAMP directly activates STING, circumventing cGAS; this was used to determine if compounds had effects on downstream components of cGAS/STING signaling. The IFN-6 ELISA was used as the primary measure of cellular potency and selectivity (Table 3) and used the reporter gene assays for assessing off-target activity with other pattern recognition receptors.

[8] = system: RIG-1 signaling; experiment: Reporter gene assay IRF30Luc (RIG-1); type: cell-based; conditions: concentrations as high as 100 μM
Method: as §5
(§6) The reporter gene assays were used to assess off-target activity with IRF30Luc (RIG-1) or NFKB (TLR4); CellTiter Glo (ATP levels) and Presto Blue (reducing equivalents) were used to assess cytotoxicity; all assays were performed in dose response mode. […] The inventors recently began using human PBMCs to assess cellular potency in a more physiologically relevant context.

[9] = system: TLR4 pathway; experiment: Reporter gene assay NFKB (TLR4); type: cell-based; conditions: concentrations as high as 100 μM
Method: as §5, §6

[10] = Cytotoxicity, CellTiter Glo (ATP levels) and Presto Blue (reducing equivalents); type: cell-based; conditions: concentrations as high as 100 μM
Method: as §6

[11] = system: isolated Luc reporter enzyme; experiment: Isolated Luc reporter enzyme inhibition; type: biochemical; conditions: at 80 μM
[12] = biological target: isolated SEAP reporter enzyme (Homo sapiens, UniProt P05187); experiment: Isolated SEAP reporter enzyme inhibition; type: biochemical
[13] = Metabolic stability in human hepatocytes; type: in vitro ADME; conditions: read-out: Human MS Stability t1/2
Method: as §2, §3, §4

[14] = system: IFN-β production in PBMCs; experiment: IFNβ ELISA in human primary PBMCs; type: cell-based; conditions: PBMC
Text: Cellular assays: The human monocyte cell line THP-1 and human primary PBMCs were used to evaluate the cellular activity of compounds with good biochemical potency. These cells produce a robust cGAS/STING-dependent type I IFN response when stimulated with dsDNA and other pathogen-associated molecular patterns, which was detected using a standard ELISA for IFNβ (R&D Systems). The TBK1 inhibitor, BX-795, which acts downstream of cGAS/STING, was used as a probe.
The ICso values for IFNB ELISA stimulated with THP-1, PBMC, DNA, and cGAMP were determined for several exemplary compounds of the invention, and are provided in Table 3 where A represents <1 μM; B represents 1-2.5 μM; C represents 2.5-10 μM; D represents 10-20 μM; and E represents >20 μM.
as §6

[15] = system: MDCK cells expressing human MDR1 (P-glycoprotein); experiment: MDCK-MDR1 permeability A→B; type: in vitro ADME, Canine
In short: as §1

[16] = Metabolic stability in mouse liver microsomes; type: in vitro ADME; conditions: read-out: Mouse MS Stability t1/2
Method: as §2, §4

[17] = Metabolic stability in human liver microsomes; type: in vitro ADME; conditions: read-out: Human MS Stability t1/2
Method: as §2, §4

[18] = high ATP and GTP (1 mM) to mimic physiological conditions, read-out: IC50 FP Physiological
[19] = standard conditions: 100 μM ATP and GTP, 62.5 nM bp ISD, 60 minute reactions, read-out: IC50 FP Standard

T1 sequence (Q8N884 whole entry): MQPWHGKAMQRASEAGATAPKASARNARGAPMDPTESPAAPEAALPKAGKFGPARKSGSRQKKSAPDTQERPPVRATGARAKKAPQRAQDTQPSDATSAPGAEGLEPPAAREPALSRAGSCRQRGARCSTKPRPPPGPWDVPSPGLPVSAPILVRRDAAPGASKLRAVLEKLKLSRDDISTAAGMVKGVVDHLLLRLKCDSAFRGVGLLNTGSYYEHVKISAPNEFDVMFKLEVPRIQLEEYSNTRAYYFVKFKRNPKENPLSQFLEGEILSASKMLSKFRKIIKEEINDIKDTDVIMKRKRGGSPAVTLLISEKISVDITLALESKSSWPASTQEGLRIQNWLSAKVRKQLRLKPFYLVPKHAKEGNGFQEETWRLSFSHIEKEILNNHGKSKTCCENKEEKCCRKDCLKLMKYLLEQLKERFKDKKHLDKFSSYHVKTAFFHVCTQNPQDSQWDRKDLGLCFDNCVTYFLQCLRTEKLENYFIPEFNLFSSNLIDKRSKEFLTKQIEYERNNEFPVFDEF
Sequence of mouse cGAS (Q8C6L5 whole entry): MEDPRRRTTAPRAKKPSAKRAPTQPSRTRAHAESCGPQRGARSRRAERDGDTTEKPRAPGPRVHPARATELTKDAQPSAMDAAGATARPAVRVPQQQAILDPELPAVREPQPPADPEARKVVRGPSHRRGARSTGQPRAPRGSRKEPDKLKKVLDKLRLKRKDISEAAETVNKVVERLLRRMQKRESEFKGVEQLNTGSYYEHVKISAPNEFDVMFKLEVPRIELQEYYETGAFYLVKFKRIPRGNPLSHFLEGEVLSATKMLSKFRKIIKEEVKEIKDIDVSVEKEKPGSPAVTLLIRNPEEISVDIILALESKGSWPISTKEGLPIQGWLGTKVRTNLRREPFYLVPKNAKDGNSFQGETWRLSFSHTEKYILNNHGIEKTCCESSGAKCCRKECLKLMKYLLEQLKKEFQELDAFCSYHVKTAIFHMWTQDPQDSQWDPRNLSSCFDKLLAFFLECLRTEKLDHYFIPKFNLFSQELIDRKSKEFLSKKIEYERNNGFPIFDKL
Sequence of isolated SEAP reporter enzyme (P05187 23-511 limits assumed): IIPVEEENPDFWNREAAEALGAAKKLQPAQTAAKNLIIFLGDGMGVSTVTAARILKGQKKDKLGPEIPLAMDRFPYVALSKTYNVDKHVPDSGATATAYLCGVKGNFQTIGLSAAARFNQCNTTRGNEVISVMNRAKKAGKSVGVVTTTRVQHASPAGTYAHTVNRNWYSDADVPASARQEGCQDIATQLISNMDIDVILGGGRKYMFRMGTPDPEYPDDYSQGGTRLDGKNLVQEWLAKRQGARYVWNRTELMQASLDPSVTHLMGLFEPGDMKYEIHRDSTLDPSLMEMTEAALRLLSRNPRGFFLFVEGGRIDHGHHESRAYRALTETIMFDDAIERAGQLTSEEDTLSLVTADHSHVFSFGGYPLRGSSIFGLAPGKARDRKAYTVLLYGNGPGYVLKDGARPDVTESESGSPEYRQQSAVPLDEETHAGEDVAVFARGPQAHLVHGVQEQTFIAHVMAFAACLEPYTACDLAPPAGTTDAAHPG

| Papp A→B [1] [×10⁻⁶ cm/s] | half-life [2] [h] | solubility kinetic [3] [µM] | IC50 [4, 18] [nM] | IC50 [4, 19] [nM] | IC50 [5] [nM] | IC50 [6] [nM] | Stabilization of cGAS in cells (CETSA) [7] | Inhibition of isolated Luc [11] [%] | Inhibition of isolated SEAP reporter enzyme [12] | half-life ([2]; given as number) [h] | half-life [13] [h] | Cellular IC50 relative to biochemical IC50 ([6]; cellular assays vs cGAS enzymatic assay at 1 mM ATP/GTP) | MDCK-MDR Permeability A→B [15] | half-life [16] [h] | half-life [17] [h] | Structure (SMILES) | Inhibition of RIG-1 signaling [8] | Inhibition of TLR4 signaling [9] | Cytotoxicity [10] | IC50 [14] [nM] |
| --- | --- | --- | --- | --- | --- | --- | --- | --- | --- | --- | --- | --- | --- | --- | --- | --- | --- | --- | --- | --- |
| 1 to 5 | 1.67 to 3.33 | 488 (≈ 238 µg/mL) | < 200 | 50 to 100 | 8300 | > 20000 | stabilized cGAS | 50 | appreciably | – | – | – | – | – | – | Cc1nc(N2C[C@@H](CC(=O)Nc3ccc4ncsc4c3)C[C@H]2C(=O)O)c2oc3ccccc3c2n1 [Compound 4, (2S,4R)-4-(2-(benzo[d]thiazol-6-ylamino)-2-oxyethyl)-1-(2-methylbenzofuro[3,2-d]pyrimidin-4-yl)pyrrolidine-2-carboxylic acid] | no detectable inhibition | no detectable inhibition | no cytotoxicity | – |
| 1 to 5 | – | 570 (≈ 327 µg/mL) | 200 to 500 | 100 to 200 | – | < 1000 | – | – | – | > 6 | 1.67 to 3.33 | essentially identical | – | – | – | Cc1nc(N2C[C@@H](CC(=O)Nc3ccc(-c4ccccc4)c(C(F)(F)F)c3)C[C@H]2C(=O)O)c2oc3ccccc3c2n1 [Compound 63, (2S,4R)-1-(2-methylbenzofuro[3,2-d]pyrimidin-4-yl)-4-(2-oxo-2-((2-(trifluoromethyl)-[1,1′-biphenyl]-4-yl)amino)ethyl)pyrrolidine-2-carboxylic acid] | – | – | – | 1000 to 2500 |
| – | – | 542 (≈ 234 µg/mL) | – | – | – | > 20000 | – | – | – | – | – | – | C (C represents <1 cm/ss×10^−6) | 1.67 to 3.33 | 1.67 to 3.33 | Cc1nc(N2C[C@@H](CC(=O)Nc3ccncc3)C[C@H]2C(=O)O)c2oc3ccccc3c2n1 [Compound A, (2S,4R)-1-(2-methylbenzofuro[3,2-d]pyrimidin-4-yl)-4-(2-oxo-2-(pyridine-4-ylamino)ethyl)pyrrolidine-2-carboxylic acid, reference compound] | – | – | – | – |

Source: US20240174684A1, “INHIBITORS OF cGAS ACTIVITY AS THERAPEUTIC AGENTS” (BELLBROOK LABS, LLC, priority 2021, published 2024)
